Assays:
Format in all cases: in vivo
[1] = system: Septoria tritici; experiment: Protective activity against Septoria foliar blotch disease of wheat caused by Septoria tritici; details: wheat seedlings "Riband", inoculated 24 h after spraying, 2 weeks
Experimental: (§1) The active compounds were prepared separately or jointly as a 10% strength emulsion in a mixture of 70% by weight of cyclohexanone, 20% by weight of Nekanil® LN (Lutensol® AP6, wetting agent having emulsifying and dispersing action based on ethoxylated alkylphenols) and 10% by weight of Wettol® EM (nonionic emulsifier based on ethoxylated castor oil) and diluted with water to the desired concentration.
Leaves of potted wheat seedlings of the cultivar “Riband” were sprayed to runoff point with an aqueous preparation of active compound which had been prepared from a stock solution made of 10% of active compound, 85% of cyclohexanone and 5% of emulsifier. 24 hours after the spray coating had dried on, they were inoculated with an aqueous spore suspension of Septoria tritici. The suspension contained 2.0×10^6 spores/ml. The test plants were then placed in a greenhouse at 18-22° C. and a relative atmospheric humidity of close to 100%. After 2 weeks, the extent of the development of the disease was determined visually in % infection of the entire leaf area.

[2] = system: Pyrenophora teres; experiment: Activity against net blotch of barley caused by Pyrenophora teres; details: barley seedlings "Igri", inoculated 24 h after spraying, 6 days
Experimental: as §1
Leaves of potted barley seedlings of the cultivar “Igri” were sprayed to runoff point with an aqueous preparation of active compound which had been prepared from a stock solution made of 10% of active compound, 85% of cyclohexanone and 5% of emulsifier and were inoculated 24 hours after the spray coating had dried on with an aqueous spore suspension of Pyrenophora teres, the net blotch pathogen. The test plants were then placed in a greenhouse at 20-24° C. and 95-100% relative atmospheric humidity. After 6 days, the extent of the development of the disease was determined visually in % infection of the entire leaf area.

[3] = system: Blumeria graminis forma specialis tritici; experiment: Activity against mildew of wheat caused by Blumeria graminis forma specialis tritici; details: wheat seedlings "Kanzler", dusted with spores 24 h after spraying, 7 days
Experimental: as §1
Leaves of potted wheat seedlings of the cultivar “Kanzler” were sprayed to runoff point with an aqueous preparation of active compound which had been prepared from a stock solution made of 10% of active compound, 85% of cyclohexanone and 5% of emulsifier and were dusted 24 hours after the spray coating had dried on with spores of mildew of wheat (Blumeria graminis forma specialis tritici). The test plants were then placed in a greenhouse at 20-24° C. and 60-90% relative atmospheric humidity. After 7 days, the extent of the mildew development was determined visually in % infection of the entire leaf area.

[4] = system: Puccinia recondita; experiment: Curative activity against brown rust of wheat caused by Puccinia recondita; details: curative spray 24 h after inoculation, wheat seedlings "Kanzler", 7 days
Experimental: as §1
Leaves of potted wheat seedlings of the cultivar “Kanzler” were dusted with spores of brown rust (Puccinia recondita). The pots were then placed in a chamber with high atmospheric humidity (90 to 95%) at 20-22° C. for 24 hours. During this period, the spores germinated and the germinal tubes penetrated into the leaf tissue. The following day, the infected plants were sprayed to runoff point with an aqueous preparation of active compound which had been prepared from a stock solution made of 10% of active compound, 85% of cyclohexanone and 5% of emulsifier. After the spray coating had dried on, the test plants were cultivated in a greenhouse at 20-22° C. and 65-70% relative atmospheric humidity for 7 days. The extent of the rust fungus development on the leaves was then determined.

| SMILES | % infection of the leaves after application of an aqueous preparation comprising . . . ppm of active compound ([1]; 16 ppm) | % infection of the leaves after application of an aqueous preparation comprising . . . ppm of active compound ([1]; 63 ppm) | % infection of the leaves after application of an aqueous preparation comprising . . . ppm of active compound ([1]; 250 ppm) | % infection of the leaves after application of an aqueous preparation comprising . . . ppm of active compound ([2]; 16 ppm) | % infection of the leaves after application of an aqueous preparation comprising . . . ppm of active compound ([2]; 63 ppm) | % infection of the leaves after application of an aqueous preparation comprising . . . ppm of active compound ([2]; 250 ppm) | % infection of the leaves after application of an aqueous preparation comprising . . . ppm of active compound ([3]; 16 ppm) | % infection of the leaves after application of an aqueous preparation comprising . . . ppm of active compound ([3]; 63 ppm) | % infection of the leaves after application of an aqueous preparation comprising . . . ppm of active compound ([3]; 250 ppm) | % infection of the leaves after application of an aqueous preparation comprising . . . ppm of active compound ([4]; 16 ppm) | % infection of the leaves after application of an aqueous preparation comprising . . . ppm of active compound ([4]; 63 ppm) | % infection of the leaves after application of an aqueous preparation comprising . . . ppm of active compound ([4]; 250 ppm) |
| --- | --- | --- | --- | --- | --- | --- | --- | --- | --- | --- | --- | --- |
| C[C@@H](Nc1c(-c2ccccc2Cl)c(Cl)nc2ncnn12)C(C)(C)C (single isomer, unassigned) [I.-44b] | 30% | 10% | 10% | – | – | – | – | – | – | – | – | – |
| CC(C)C(C)Nc1c(-c2c(Cl)cccc2Cl)c(Cl)nc2ncnn12 (stereo not shown) [I.-8] | 70% | 30% | 30% | 40% | 15% | 15% | – | – | – | – | – | – |
| COc1cc(F)c(-c2c(Cl)nc3ncnn3c2N[C@H](C)C(C)C)c(F)c1 [I.-17] | 10% | 10% | 10% | – | – | – | 60% | 60% | 60% | – | – | – |
| COc1cc(F)c(-c2c(Cl)nc3ncnn3c2N[C@H](C)C(C)(C)C)c(F)c1 [I.-18] | – | – | 30% | – | – | – | – | – | – | – | – | – |
| CCC(C)Nc1c(-c2c(F)c(F)c(F)c(F)c2F)c(Cl)nc2ncnn12 (stereo not shown) [I.-19] | 50% | 10% | 10% | – | – | 30% | – | 7% | 7% | – | – | – |
| CC(C)[C@@H](C)Nc1c(-c2c(F)c(F)c(F)c(F)c2F)c(Cl)nc2ncnn12 [I.-20] | 10% | 10% | 10% | 30% | 10% | 0% | 30% | 20% | 5% | – | – | – |
| CC(C)C(C)Nc1c(-c2ccccc2C(F)(F)F)c(Cl)nc2ncnn12 (stereo not shown) [I.-25] | 0% | 0% | 0% | – | – | – | – | – | – | – | – | – |
| CC(Nc1c(-c2ccccc2C(F)(F)F)c(Cl)nc2ncnn12)C(C)(C)C (stereo not shown) [I.-26] | 3% | 0% | 0% | – | – | – | – | – | – | – | – | – |
| CC(C)[C@H](C)Nc1c(-c2c(Cl)cccc2Cl)c(Cl)nc2ncnn12 [comparison (S)-amine of I.-8] | 90% | 90% | 90% | 100% | 100% | 100% | – | – | – | – | – | – |
| CC[C@H](C)Nc1c(-c2c(F)cc(F)cc2F)c(Cl)nc2ncnn12 [comparison (S)-amine of I.-13] | – | – | – | 60% | – | – | 100% | 60% | – | 60% | 3% | – |
| COc1cc(F)c(-c2c(Cl)nc3ncnn3c2N[C@@H](C)C(C)C)c(F)c1 [comparison (S)-amine of I.-17] | 90% | 90% | 90% | – | – | – | 100% | 100% | 100% | – | – | – |
| COc1cc(F)c(-c2c(Cl)nc3ncnn3c2N[C@@H](C)C(C)(C)C)c(F)c1 [comparison (S)-amine of I.-18] | – | – | 80% | – | – | – | – | – | – | – | – | – |
| CCC(C)Nc1c(-c2ccc(F)cc2C)c(Cl)nc2ncnn12 [comparison (S)-amine of I.-22] | – | – | – | 80% | 7% | – | 80% | 70% | 70% | 100% | 100% | 100% |
| Cc1cc(F)ccc1-c1c(Cl)nc2ncnn2c1N[C@@H](C)C(C)C [comparison (S)-amine of I.-23] | – | – | – | 60% | – | – | 60% | 60% | 40% | 100% | 100% | 100% |
| CC(C)[C@H](C)Nc1c(-c2ccccc2C(F)(F)F)c(Cl)nc2ncnn12 [comparison (S)-amine of I.-25] | 100% | 100% | 100% | – | – | – | – | – | – | – | – | – |
| CC(Nc1c(-c2ccccc2C(F)(F)F)c(Cl)nc2ncnn12)C(C)(C)C [comparison (S)-amine of I.-26] | 100% | 100% | 100% | – | – | – | – | – | – | – | – | – |
| CC(Nc1c(-c2ccccc2Cl)c(Cl)nc2ncnn12)C(C)(C)C [comparison (S)-amine of I.-44b] | 80% | 80% | 80% | – | – | – | – | – | – | – | – | – |
